The results in this text go back to ChEMBL document CHEMBL1144192, “Synthesis and activity of 1-(3-amino-1-phenylpropyl)indolin-2-ones: a new class of selective norepinephrine reuptake inhibitors” (Bioorg Med Chem Lett, 2008).

The IC50 is the midpoint of a concentration-inhibition curve. Read a low IC50 as greater potency.

Experiment [1] has as its target Sodium-dependent noradrenaline transporter (Homo sapiens, UniProt P23975).
Description: Inhibition of norepinephrine uptake at human NET expressed in MDCK cells
Experiment [2] deals with Sodium-dependent dopamine transporter (Homo sapiens) (UniProt Q01959). Nature of the experiment: Displacement of [3H]WIN-35428 from human recombinant DAT expressed in CHO cells at 1 uM. Type of experiment: cell-based. (In general: Loss of bound radioactivity is the signal in a displacement assay; it reports binding, not function.)
Sequence of Sodium-dependent dopamine transporter (Homo sapiens) (Q01959 whole entry): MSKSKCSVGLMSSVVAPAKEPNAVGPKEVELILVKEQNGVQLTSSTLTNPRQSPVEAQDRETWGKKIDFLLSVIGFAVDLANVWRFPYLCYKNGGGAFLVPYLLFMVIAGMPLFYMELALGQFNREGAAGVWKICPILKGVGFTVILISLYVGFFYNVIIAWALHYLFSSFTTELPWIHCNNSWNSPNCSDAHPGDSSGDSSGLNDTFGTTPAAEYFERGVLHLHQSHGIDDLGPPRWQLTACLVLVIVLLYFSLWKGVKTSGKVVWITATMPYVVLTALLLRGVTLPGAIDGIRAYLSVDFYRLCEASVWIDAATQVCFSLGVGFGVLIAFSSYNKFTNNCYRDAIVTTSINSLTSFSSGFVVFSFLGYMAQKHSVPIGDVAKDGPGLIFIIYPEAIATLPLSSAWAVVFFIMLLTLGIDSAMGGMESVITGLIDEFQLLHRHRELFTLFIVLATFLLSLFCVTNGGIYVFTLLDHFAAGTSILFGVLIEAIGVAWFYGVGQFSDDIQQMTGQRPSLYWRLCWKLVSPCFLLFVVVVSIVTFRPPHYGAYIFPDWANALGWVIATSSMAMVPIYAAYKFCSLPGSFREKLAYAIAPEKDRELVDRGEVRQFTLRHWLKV
In experiment [3] the target is Sodium-dependent serotonin transporter (Homo sapiens, UniProt P31645). Type of experiment: cell-based, JAR.
Sequence of Sodium-dependent serotonin transporter (P31645 whole entry): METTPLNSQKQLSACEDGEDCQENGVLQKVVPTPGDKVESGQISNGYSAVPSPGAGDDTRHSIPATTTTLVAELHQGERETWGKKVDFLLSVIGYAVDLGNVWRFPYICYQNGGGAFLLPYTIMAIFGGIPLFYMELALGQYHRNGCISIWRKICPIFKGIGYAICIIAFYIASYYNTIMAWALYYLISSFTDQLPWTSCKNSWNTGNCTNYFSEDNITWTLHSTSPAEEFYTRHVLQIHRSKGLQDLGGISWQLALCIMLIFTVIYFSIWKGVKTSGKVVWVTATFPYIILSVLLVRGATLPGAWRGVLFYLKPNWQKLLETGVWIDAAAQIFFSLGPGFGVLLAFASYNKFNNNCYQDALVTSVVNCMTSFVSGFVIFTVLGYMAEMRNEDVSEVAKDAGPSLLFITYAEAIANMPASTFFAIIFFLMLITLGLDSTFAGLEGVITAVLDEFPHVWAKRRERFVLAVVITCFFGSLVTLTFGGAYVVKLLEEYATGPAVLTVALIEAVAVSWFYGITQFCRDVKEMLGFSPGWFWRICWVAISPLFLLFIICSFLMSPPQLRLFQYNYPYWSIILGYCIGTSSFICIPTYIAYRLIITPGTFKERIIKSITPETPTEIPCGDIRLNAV
Description: Inhibition of serotonin uptake at human SERT expressed in JAR cells

Sequence of Sodium-dependent noradrenaline transporter (P23975 whole entry): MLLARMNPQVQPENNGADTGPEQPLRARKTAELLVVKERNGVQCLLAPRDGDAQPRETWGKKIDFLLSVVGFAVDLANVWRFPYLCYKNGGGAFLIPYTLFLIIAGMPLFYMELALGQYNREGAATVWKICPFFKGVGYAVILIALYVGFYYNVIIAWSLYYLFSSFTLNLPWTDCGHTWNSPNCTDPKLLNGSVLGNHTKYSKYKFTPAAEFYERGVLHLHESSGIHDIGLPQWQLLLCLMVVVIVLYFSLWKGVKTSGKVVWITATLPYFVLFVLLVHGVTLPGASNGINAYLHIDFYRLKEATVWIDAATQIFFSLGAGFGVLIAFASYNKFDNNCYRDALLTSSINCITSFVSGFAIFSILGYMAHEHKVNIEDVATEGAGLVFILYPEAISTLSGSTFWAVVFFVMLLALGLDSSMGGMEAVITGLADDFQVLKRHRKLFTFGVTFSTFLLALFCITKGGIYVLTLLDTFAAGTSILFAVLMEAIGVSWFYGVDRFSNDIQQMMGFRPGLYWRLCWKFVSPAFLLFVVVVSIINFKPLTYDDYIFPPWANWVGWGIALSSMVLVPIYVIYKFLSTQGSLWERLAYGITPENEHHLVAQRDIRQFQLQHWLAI

Consider `CNCC[C@H](c1cccc(F)c1)N1C(=O)C2(CCCCC2)c2ccccc21`, for which the IC50 is 26 nM in experiment [1] and greater than 3000 nM in experiment [3]. The Activity in experiment [2] was found to be 20%.

With `CNCC[C@@H](c1ccccc1)N1C(=O)C2(CCCCC2)c2ccccc21`, the IC50 in experiment [1] is greater than 3000 nM; in experiment [3], 1750 nM. In addition, the Activity in experiment [2] was determined as 0%.

`CNCC[C@H](c1cccc(Cl)c1)N1C(=O)C(C)(C)c2cccc(F)c21`: the results for the IC50 in experiment [1] and in experiment [3] were 7 nM and 290 nM, respectively. Besides, the Activity in experiment [2] is 10%.

For `CNCC[C@H](c1ccccc1)N1C(=O)C2(CCCCC2)c2ccccc21`, the figures for the IC50 in experiment [1] and in experiment [3] were 53 nM and greater than 3000 nM, respectively. For the same molecule, the Activity in experiment [2] was determined as 26%.

On to `CNCC[C@H](c1ccccc1)N1C(=O)C(C)(C)c2ccccc21`, for which the IC50 worked out at 7 nM in experiment [1] and 1350 nM in experiment [3]. The Activity in experiment [2] was found to be 0%.

Take `CNCC[C@H](c1cc(F)cc(F)c1)N1C(=O)C(C)(C)c2cccc(F)c21`: the results for the IC50 in experiment [1] and in experiment [3] were 6 nM and 330 nM, respectively. Moreover, the Activity in experiment [2] is 0%.

Turning to `CNCCC(Oc1ccccc1OC)c1ccccc1` (configuration not stated) [NISOXETINE], in experiment [3], the IC50 worked out at 277 nM.

For the molecule `CNCC[C@@H](c1cccc(F)c1)N1C(=O)C2(CCCCC2)c2ccccc21`, the IC50 is greater than 3000 nM in experiment [1] and 1150 nM in experiment [3]. In experiment [2], the Activity came out at 1%.

As to `CNCC[C@H](c1ccccc1)N1C(=O)C(C)(C)c2cccc(F)c21`, the IC50 in experiment [1] is 175 nM; in experiment [3], greater than 3000 nM. Moreover, the Activity in experiment [2] amounted to 3%.

As for `CNCC[C@@H](c1ccccc1)N1C(=O)C(C)(C)c2ccccc21`, the IC50 was greater than 3000 nM in experiment [1] and 1950 nM in experiment [3]. Besides, the Activity in experiment [2] turned out to be 3%.

In the case of `CNCC[C@H](c1cc(F)cc(Cl)c1)N1C(=O)C(C)(C)c2cccc(F)c21`, the IC50 in experiment [1] was 19 nM; in experiment [3], greater than 3000 nM. For the same molecule, the Activity in experiment [2] is 0%.

As to `CNCC[C@H](c1cccc(F)c1)N1C(=O)C(C)(C)c2cccc(F)c21`, the values for the IC50 in experiment [1] and in experiment [3] were 14 nM and 2550 nM, respectively. Further, the Activity in experiment [2] was determined as 7%.

Take `CNCCC(c1ccccc1)n1ccc2ccccc21` (configuration not stated): the results for the IC50 in experiment [1] and in experiment [3] were 47 nM and 327 nM, respectively. Moreover, the Activity in experiment [2] came out at 44%.
